US20250109141A1, “BRD4 PROTEIN DEGRADER COMPOUND, AND PREPARATION METHOD AND USE THEREOF” (Miracure Biotechnology Limited, priority 2023, published 2025)
Like-named read-outs stand apart in the source and are kept apart here.

Legend:
22RV1 = test: Cell proliferation assay (CellTiterGlo, 72 h), 22RV1; format: cell-based; conditions: Homo sapiens, read-out: 22Rv1 ATP average IC50
Experimental: All incubations were performed at 37° C. in a humidified carbon dioxide incubator.
(§1) The cells were seeded in a 96-well plate (white wall/transparent bottom) at 5000 cells/well and cultured overnight.
(§2) On day 2, A stock solution of the compound at a concentration of 10 mM was subjected to an 8-fold serial dilution to obtain 8 concentration points. 2 μL of the compound solution at each concentration point was added to 98 μL of fresh medium, and the mixture was mixed homogeneously. Then, 5 μL of the compound solution diluted in the medium at each concentration point was added to 100 μL of overnight medium containing the cells, and 2 replicates were set for each concentration. The mixture was cultured for 72 h.
(§3) After 72 h of compound treatment, the plate was equilibrated to room temperature, 100 μL of CellTiterGlo (Promega) was added. The mixture was mixed homogeneously for 2 min, left to stand at room temperature for 10 min, and then read for luminescence values on a SpectraMax M5 microplate reader to evaluate cell viability. The positive control was 1% Tween-20 and the negative control was 0.1% DMSO. IC50 was generated by 4-parameter non-linear regression fitting in GraphPad Prism.

LNCaP = test: Cell proliferation assay (CellTiterGlo, 72 h), LNCaP; format: cell-based; conditions: Homo sapiens, LNCap cells, 72 h compound treatment, read-out: LNCap ATP average IC50
Experimental: The cell line used was 22RV1 or LNCaP, and the medium was RPMI-1640 containing 10% FBS and antibiotics. All incubations were performed at 37° C. in a humidified carbon dioxide incubator.
On day 1, cells were digested with 0.25% trypsin (containing EDTA) and collected by centrifugation.
as §1, §2, §3

BRD4 = BRD4 (Homo sapiens, UniProt O60885); test: BRD4 degradation assay (Western-blot / Simple Western) in 22RV1; conditions: 22RV1 cells, target content as percentage of control (DMSO = 100%)
[1] = 22Rv1 cells, 72 h compound treatment, CellTiterGlo

Structure (SMILES) | IC50 (22RV1; 22Rv1, 72 h) [nM] | IC50 (LNCaP) [nM] | BRD4 degradation of 22RV1 (200 nM 5 h) (BRD4) | IC50 (22RV1; [1]) [nM]
Cc1sc2c(c1C)C(c1ccc(C#CCN)cc1)=N[C@@H](CC(=O)OC1(C)CC1)c1nnc(C)n1-2 [Compound 9103] | < 50 | < 50 | B (20%<B<50%) | –
CONC/C=C/c1ccc(C2=N[C@@H](CC(=O)OC(C)(C)C)c3nnc(C)n3-c3ccc(OC)cc32)cc1 [Compound 9079] | < 50 | < 50 | A (A<20%) | –
Cc1sc2c(c1C)C(c1ccc(C#CCNC(=N)NO)cc1)=N[C@@H](CC(=O)OC(C)(C)C)c1nnc(C)n1-2 [Compound 9111] | – | 50 to 200 | D (80%<D<100%) | 200 to 500
Cc1sc2c(c1C)C(c1ccc(/C=C/CN)cc1)=N[C@@H](CC(=O)OC1(C)CC1)c1nnc(C)n1-2 [Compound 9137] | – | < 50 | B (20%<B<50%) | < 50
COc1ccc2c(c1)C(c1ccc(C#CCN)cc1)=N[C@@H](CC(=O)OC(C)(C)C)c1nnc(C)n1-2 [Compound 9080] | < 50 | 50 to 200 | B (20%<B<50%) | –
Cc1sc2c(c1C)C(c1ccc(C#CCN)cc1)=N[C@@H](Cc1nccs1)c1nnc(C)n1-2 [Compound 9135] | 50 to 200 | < 50 | B (20%<B<50%) | –
Cc1sc2c(c1C)C(c1ccc(/C=C/C=N/O)cc1)=N[C@@H](CC(=O)OC(C)(C)C)c1nnc(C)n1-2 [Compound 9132-A] | – | < 50 | D (80%<D<100%) | 50 to 200
CNC(=O)C#Cc1ccc(C2=N[C@@H](CC(=O)OC(C)(C)C)c3nnc(C)n3-c3sc(C)c(C)c32)cc1 [Compound 9104] | – | – | D (80%<D<100%) | < 50
Cc1sc2c(c1C)C(c1ccc(/C=C/CNC(=N)NO)cc1)=N[C@@H](CC(=O)OC(C)(C)C)c1nnc(C)n1-2 [Compound 9114] | – | – | C (50%<C<80) | 50 to 200
Cc1sc2c(c1C)C(c1ccc(/C=C/CNO)cc1)=N[C@@H](CC(=O)OC(C)(C)C)c1nnc(C)n1-2 [Compound 9011] | – | < 50 | A (A<20%) | < 50
Cc1sc2c(c1C)C(c1ccc(/C=C/CNO)cc1)=N[C@@H](Cc1nccs1)c1nnc(C)n1-2 [Compound 9166] | – | < 50 | A (A<20%) | < 50
CONC/C=C/c1ccc(C2=N[C@@H](CC(=O)OC(C)(C)C)c3nnc(C)n3-c3sc(C)c(C)c32)cc1 [Compound 9065] | – | < 50 | B (20%<B<50%) | < 50
Cc1sc2c(c1C)C(c1ccc(/C=C/CNO)cc1)=N[C@@H](CC(=O)OC1(C)CC1)c1nnc(C)n1-2 [Compound 9184] | – | < 50 | A (A<20%) | < 50
Cc1sc2c(c1C)C(c1ccc(-c3ccc(CN)o3)cc1)=N[C@@H](CC(=O)OC(C)(C)C)c1nnc(C)n1-2 [Compound 9071] | – | 50 to 200 | C (50%<C<80) | 50 to 200
Cc1sc2c(c1C)C(c1ccc(C#CCNO)cc1)=N[C@@H](Cc1nccs1)c1nnc(C)n1-2.Cl [Compound 9173] | – | < 50 | C (50%<C<80) | < 50
CC(=O)N(O)C/C=C/c1ccc(C2=N[C@@H](CC(=O)OC(C)(C)C)c3nnc(C)n3-c3sc(C)c(C)c32)cc1 [Compound 9109] | – | 50 to 200 | C (50%<C<80) | 200 to 500
Cc1sc2c(c1C)C(c1ccc(/C=C/CN)cc1)=N[C@@H](Cc1nccs1)c1nnc(C)n1-2 [Compound 9136] | < 50 | < 50 | C (50%<C<80) | –
Cc1sc2c(c1C)C(c1ccc(/C=C/C=N\O)cc1)=N[C@@H](CC(=O)OC(C)(C)C)c1nnc(C)n1-2 [Compound 9132-B] | – | 50 to 200 | D (80%<D<100%) | 50 to 200
Cc1sc2c(c1C)C(c1ccc(C#CCN)cc1)=N[C@@H](Cc1nnc(C(C)C)o1)c1nnc(C)n1-2 [Compound 9160] | < 50 | < 50 | C (50%<C<80) | –
COc1ccc2c(c1)C(c1ccc(/C=C/CNO)cc1)=N[C@@H](CC(=O)OC(C)(C)C)c1nnc(C)n1-2 [Compound 9077] | < 50 | < 50 | A (A<20%) | –
Cc1sc2c(c1C)C(c1ccc(C#CCN)cc1)=N[C@@H](CC(=O)O)c1nnc(C)n1-2 [Compound 9021] | > 500 | 50 to 200 | – | –

Structure (SMILES) | IC50 (22RV1; 22Rv1, 72 h) [nM] | IC50 (LNCaP) [nM] | BRD4 degradation of 22RV1 (200 nM 5 h) (BRD4) | IC50 (22RV1; [1]) [nM]
Cc1sc2c(c1C)C(c1ccc(C3CC3/C=N/O)cc1)=N[C@@H](CC(=O)OC(C)(C)C)c1nnc(C)n1-2 (stereo partly drawn) [Compound 9148] | – | 50 to 200 | C (50%<C<80) | 50 to 200
Cc1sc2c(c1C)C(c1ccc(N3CC(=NO)C3)cc1)=N[C@@H](CC(=O)OC(C)(C)C)c1nnc(C)n1-2 [Compound 9090] | – | 50 to 200 | – | > 500
Cc1sc2c(c1C)C(c1ccc(-c3ncc(CN)s3)cc1)=N[C@@H](CC(=O)OC(C)(C)C)c1nnc(C)n1-2 [Compound 9068] | – | 50 to 200 | – | 50 to 200
Cc1sc2c(c1C)C(c1ccc(-c3cccc(N)c3)cc1)=NC(CC(=O)OC(C)(C)C)c1nnc(C)n1-2 (stereo not drawn) [Compound 9087] | – | 200 to 500 | – | > 500
COc1ccc2c(c1)C(c1ccc(/C=C/C=N/O)cc1)=N[C@@H](CC(=O)OC(C)(C)C)c1nnc(C)n1-2 [Compound 9222] | 200 to 500 | 50 to 200 | – | –
Cc1sc2c(c1C)C(c1ccc(-c3ccc(CN)s3)cc1)=N[C@@H](CC(=O)OC(C)(C)C)c1nnc(C)n1-2 [Compound 9067] | – | 50 to 200 | – | 50 to 200
CC(=O)NOC/C=C/c1ccc(C2=N[C@@H](CC(=O)OC(C)(C)C)c3nnc(C)n3-c3sc(C)c(C)c32)cc1 [Compound 9094] | – | 50 to 200 | – | 50 to 200
Cc1noc2c1-c1ccccc1C(c1ccc(/C=C/CN)cc1)=N[C@H]2CC(=O)OC(C)(C)C [Compound 9122] | – | 50 to 200 | – | > 500
Cc1sc2c(c1C)C(c1ccc(-c3cnc(CN)s3)cc1)=NC(CC(=O)OC(C)(C)C)c1nnc(C)n1-2 (stereo not drawn) [Compound 9073] | – | < 50 | – | 50 to 200
Cc1sc2c(c1C)C(c1ccc(-c3ccoc3CN)cc1)=N[C@@H](CC(=O)OC(C)(C)C)c1nnc(C)n1-2 [Compound 9060] | – | 50 to 200 | – | 200 to 500
COc1ccc2c(c1)C(c1ccc(/C=C/C=N\O)cc1)=N[C@@H](CC(=O)OC(C)(C)C)c1nnc(C)n1-2 [Compound 9221] | > 500 | 200 to 500 | – | –
COc1ccc2c(c1)C(c1ccc(C#CCN)cc1)=N[C@@H](CC(=O)N(C)CCO)c1nnc(C)n1-2 [Compound 9063] | > 500 | > 500 | – | –
CONCC#Cc1ccc(C2=N[C@@H](CC(=O)OC(C)(C)C)c3nnc(C)n3-c3ccc(OC)cc32)cc1 [Compound 9078] | < 50 | < 50 | B (20%<B<50%) | –
CC(=O)NNCC#Cc1ccc(C2=N[C@@H](CC(=O)OC(C)(C)C)c3nnc(C)n3-c3sc(C)c(C)c32)cc1 [Compound 9046] | – | 50 to 200 | – | < 50
Cc1sc2c(c1C)C(c1ccc(C#CC(=O)O)cc1)=N[C@@H](CC(=O)OC(C)(C)C)c1nnc(C)n1-2 [Compound 9020] | – | > 500 | – | > 500
CCNC(=O)C[C@@H]1N=C(c2ccc(C#CCN)cc2)c2c(sc(C)c2C)-n2c(C)nnc21 [Compound 9013] | 200 to 500 | < 50 | – | –
Cc1sc2c(c1C)C(c1ccc(C#CC(=O)NN)cc1)=N[C@@H](CC(=O)OC(C)(C)C)c1nnc(C)n1-2 [Compound 9017] | – | < 50 | – | 200 to 500
Cc1sc2c(c1C)C(c1ccc(C#CCN)cc1)=N[C@@H](CC(=O)OCC1(C)COC1)c1nnc(C)n1-2 [Compound 9112] | 50 to 200 | 50 to 200 | D (80%<D<100%) | –
Cc1sc2c(c1C)C(c1ccc(C3CC3CNO)cc1)=N[C@@H](CC(=O)OC(C)(C)C)c1nnc(C)n1-2 (stereo partly drawn) [Compound 9123] | – | < 50 | – | < 50
CCOC(=O)C[C@@H]1N=C(c2ccc(C#CCN)cc2)c2cc(OC)ccc2-n2c(C)nnc21 [Compound 9069] | < 50 | < 50 | – | –
Cc1sc2c(c1C)C(c1ccc(-c3ccc(CN)n3C)cc1)=N[C@@H](CC(=O)OC(C)(C)C)c1nnc(C)n1-2 [Compound 9062] | – | 50 to 200 | – | 50 to 200
